The values that follow come from patent publication US7790896B2, “RNA-selective probes for live cell imaging of nuclear structure and function” (New York University, priority 2006, dated 2010).

The test system of series [1] is 3T3 fibroblast cells, 3T3-L1 adipocyte cells, Hela cells and A549 human lung carcinoma cells. The experiment in a line: Secondary screening: live cell nuclear imaging properties in four cell lines. It counts as cell-based, mouse. As to conditions: dye 25 μM. The method, then: All cell staining imaging followed the same procedure. Generally, dyes in dry state were first dissolved in DMSO to obtain the stock solution. The stock solutions were then added directly to the cell culture wells to reach the desired concentration. Total DMSO was lower than 0.1%. After adding dyes, cells were incubated at 37° C. in 5% CO2 for 25 minutes. The medium was then removed and cells were rinsed with fresh medium twice. The cells were then imaged at ambient temperature in the medium. Exposure time was kept less than 5 seconds and adjusted to each dye.
The selected compounds from both primary screens (total 88) were resynthesized in large scale and purified. The compounds' live cell nuclear imaging properties were then tested by four cell lines, including two mouse cell lines: 3T3 fibroblast cells and 3T3-L1 adipocyte cells; and two human cancer cell lines: Hela cells and A549 human lung carcinoma cells. Herein, the final dye concentration in each test was decreased to 25 μM and all the experiments were repeated to establish reproducibility. […] Each of the three dyes contained at least one high affinity nucleic acid functional group (Trotta et al., “Solution Structure of DAPI Selectively Bound in the Minor Groove of a DNA T-T Mismatch-Containing Site: NMR and Molecular Dynamics Studies,” Nucleic Acids Res. 26:4706-4713 (1998); Loontiens et al., “Binding Characteristics of Hoechst 33258 with Calf Thymus DNA, Poly[d(A-T)], and d(CCGGAATTCCGG): Multiple Stoichiometries and Determination of Tight Binding with a Wide Spectrum of Site Affinities,” Biochem. 29:9029-9039 (1990); Zipper et al., “Investigations on DNA Intercalation and Surface Binding by SYBR Green I, Its Structure Determination and Methodological Implications,” Nucleic Acid Res. 32:E103 (2004); Glazer et al., “Stable Dye-DNA Intercalation Complexes as Reagents for High-Sensitivity Fluorescence Detection,” Nature 359:859-861 (1992), which are hereby incorporated by reference in their entirety) in building block II such as the terminal secondary amine for F22 and F112, the trimethoxy for E 144, and the indole for E36.

Series [2] has as its system RNA (16S- and 23S-ribosomal from E. coli) vs. DNA (salmon testes). Description: RNA vs. DNA selectivity titration in solution. It counts as binding. As to conditions: E36 5 μM, E144 10 μM, F22 10 μM; nucleic acid 0.195 to 200 μg/mL. As for the experimental part: Samples containing 50 μg/mL RNA in TE buffer with an increasing concentration of compound from 0.15 μM to 10 μM. Shown here is the intensity increase recorded at the emission λmax wavelength of each dye. […] The samples contain fixed concentration of dyes (E36: 5 μM; E144: 10 μM; F22: 10 μM) in TE buffer with an increasing concentration of RNA or DNA from 0.19 μg/mL to 200 μg/mL. Data points were in duplicated in individual experiments, and error bars represent standard deviation.
(§1) The fluorescence spectra data in the primary screening and selected dyes titration assay study was obtained by Gemini XS plate reader. RNA solution was prepared right before the assay experiments to avoid possible degradation and contamination. In the primary screening, 1 mg/mL RNA (type VI from torula yeast) buffer solution was used. Point scans were carried out first using five Ex/Em point sets ([…], 400/500, 450/550, 500/600, 550/650 nm). Spectra scans were then carried out for the selected dyes. Excitation wavelengths were set at 350 nm, 400 nm, 450 nm, 500 nm, and 550 nm and the emission wavelengths were scanned. RNA (16S- and 23S-ribosomal from E. coli) and DNA (salmon testes) titration experiments and quantum yield/extinction coefficient determination for the three best dyes were carried out by the plate reader as well. Excitation λmax obtained from F-2500 Hitachi Fluorophotometer was used. Absorbance wavelength was determined by SpectraMax Plus^384 absorbance plate reader. […] was chosen as standard and 480 nm was used as excitation wavelength in the scanning for quantum yield determination.
A set of solution assay experiments were then carried out to investigate the dyes' selectivity to bind RNA vs. DNA in vitro. With a fixed concentration of dye (E36 5 μM, E144 10 μM, and F22 10 μM), the fluorescent intensity at various nucleic acid concentrations (0.195 μg/mL to 200 μg/mL) was determined at the appropriate emission λmax wavelength. SYTO®RNASelect (5 μM) and Hoechst 33258 (5 μM) dyes were used as standards for RNA selective and DNA selective dyes (FIG. 3B).

Series [3] has as its system Fixed-permeabilized Hela cells. The experiment in a line: DNase and RNase digest test. As to conditions: dye 50 μM, 2 hours; for Fluorescence after RNase digest: 25 μg/mL DNase-Free RNase; for Fluorescence after DNase digest: 30 μg/mL DNase. The class given is cell-based, human. The method, then: Cells were first fixed using cold (−4° C.) pure methanol for 1 minute at ambient temperature. The cell membrane was then permeabilized by immersion in 1% Triton X-100 for 2 minutes. After rinsing with PBS twice, 100 μL of 50 μM dye PBS solution was added to three adjacent wells. Cells were then incubated in this dye PBS solution for 15 minutes in ambient temperature before being rinsed with clean PBS twice. 100 μL clean PBS (as control experiment), 30 μg/mL DNase (Sigma), or 25 μg/mL DNase-Free RNase (GE) was added to the three adjacent wells and incubated at 37° C. in 5% CO2 for 2 hours. Cells were rinsed with clean PBS twice before imaging. For each dye test, the fluorescent images were obtained using equal exposure time for control, DNase and RNase experiments. DAPI (10 μM) in PBS and SYTO®RNASelect (5 μM) in PBS solution were used for dual staining experiments. Duplicate experiments have been tested.
To further confirm that the compounds selectively bind RNA, a deoxyribonuclease (DNase) and ribonuclease (RNase) digest test was performed. In DNase digest, only the DNAs in the cell would be hydrolyzed. By contrast, in RNase digest, only RNAs would be hydrolyzed. Fixed-permeabilized Hela cells were used in this experiment and DAPI and SYTO®RNASelect were used as control dyes (FIG. 6). […] Still, its higher RNA-selective binding in live cell might be due to the complicated in vivo live cell environment, which may preferably direct this dye to nucleoli.

Series [4] has as its system RNA (Type VI from torula yeast). Description: In vitro solution assay (primary screening): fluorescent emission fold change upon binding to RNA. As to conditions: dye 10 μM, RNA 500 μg/mL in TE buffer. As for the experimental part:
as §1
The screening strategy used in this study is illustrated in FIG. 2. Both in vitro RNA assays and live cell imaging methods were utilized in the primary screening of the dye library. Selective binding of the dye to RNA in solution was the primary criterion for selecting lead compounds for subsequent bioimaging studies, Herein, the library dyes' fluorescent emission intensity fold change upon binding to RNA was measured in solution. Dyes showing five-fold or higher emission changes in the presence of RNA were selected (Table 3). Note the dyes listed are identified by the building blocks I and II from Table 2. For example, A4 is the product made by reacting compound A from the list of Building block I and compound 4 from the list of Building block II.

Molecules are shown by their SMILES.

For `COc1cc(OC)c(/C=C/c2ccc3ccccc3[n+]2C)c(OC)c1` [Dye E144], in series [1], the “Live cell nuclear imaging properties (basis of selection)” value was “selective nucleolar targeting, high fluorescence intensity, low photobleaching, and low cellular toxicity”. The “Fluorescent intensity response to RNA vs. DNA” value in series [2] is “almost same binding affinity to both RNA and DNA”. In series [3], the “Fluorescence after RNase digest” value was “not detectable” and the “Fluorescence after DNase digest” value is given as “not detectable”. Further, in series [4], the “Em(nm)” value turned out to be 540 nm, the “Ex(nm)” value is 450 nm and the “Fold (fluorescent emission fold changes to RNA)” value is on record as 5.
In the case of `COc1ccc2c(ccc(/C=C/c3ccc(N(C)C)cc3)[n+]2C)c1` [Dye F22], in series [1], the “Live cell nuclear imaging properties (basis of selection)” value is “selective nucleolar targeting, high fluorescence intensity, low photobleaching, and low cellular toxicity”. For the same compound, the “Fluorescent intensity response to RNA vs. DNA” value in series [2] is “higher response to RNA than to DNA”. In series [3], the “Fluorescence after RNase digest” value is listed as “overall decrease in intensity” and the “Fluorescence after DNase digest” value was “nucleolar stain remained bright”. In series [4], the “Em(nm)” value was found to be 640 nm, the “Ex(nm)” value came to 500 nm and the “Fold (fluorescent emission fold changes to RNA)” value came out at 23.
As to `C[n+]1c(/C=C/c2c[nH]c3ccccc23)ccc2ccccc21` [Dye E36], in series [1], the “Live cell nuclear imaging properties (basis of selection)” value was “selective nucleolar targeting, high fluorescence intensity, low photobleaching, and low cellular toxicity”. For the same compound, the “Fluorescent intensity response to RNA vs. DNA” value in series [2] is on record as “higher response to RNA than to DNA”. In addition, in series [3], the “Fluorescence after RNase digest” value is on record as “dramatically diminished” and the “Fluorescence after DNase digest” value is listed as “stayed almost the same”.
